Measurements from US11370774B2, “Substituted benzofuran, benzopyrrole, benzothiophene, and structurally related complement inhibitors” (BioCryst Pharmaceuticals, Inc., priority 2018, dated 2022).

Biological target: Factor D (Homo sapiens (Human), UniProt P00746)
Assay: Factor D esterolytic assay (Z-Lys-SBzl substrate, DTNB, 405 nm)
Format: biochemical
Conditions: Z-Lys-SBzl 1.29 mM, pH 7.5, 10% DMSO, tested a minimum of three times, read-out: Measured Ki (IC50) Value for Compounds: IC50
In short: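 Thioester hydrolysis (Z-Lys-SBzl, 1.29 mM) by human Factor D ([…]) detected through DTNB color at 405 nm over 600 sec, minus 690 nm background. Buffer: 100 mM HEPES pH 7.5, 500 mM NaCl, 10% DMSO; optional room-temperature preincubation before substrate. IC50 derived from percent rate inhibition; at least three runs.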

Factor D, sequence (P00746 26-253): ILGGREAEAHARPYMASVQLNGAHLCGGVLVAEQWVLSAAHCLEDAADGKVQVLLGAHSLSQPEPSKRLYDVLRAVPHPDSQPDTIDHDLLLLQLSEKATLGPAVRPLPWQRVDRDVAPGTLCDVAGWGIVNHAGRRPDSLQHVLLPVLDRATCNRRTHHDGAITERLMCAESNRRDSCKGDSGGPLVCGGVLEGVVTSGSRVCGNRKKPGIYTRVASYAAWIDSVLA

Q: `CC(=O)Nc1ccc(CC(=O)O)c(OCc2cc(-c3ccnc(CN)c3)c3occc3c2)c1` [Compound 437c, 2-(4-acetamido-2-((7-(2-(aminomethyl)pyridin-4-yl)benzofuran-5-yl)methoxy)phenyl)acetic acid] was tested. Which IC50 did it give?
A: The IC50 was < 1000 nM.

Q: With `N[C@@H](c1cc(-c2cc(COc3ccccc3CC(=O)O)cc3ccoc23)ccn1)C(F)(F)F` [Compound 381e, (S)-2-(2-((7-(2-(1-amino-2,2,2-trifluoroethyl)pyridin-4-yl)benzofuran-5-yl)methoxy)phenyl)acetic acid] as the compound, how does the IC50 read?
A: The IC50 was > 10000 nM.

Q: With `NCc1nccc(-c2c(F)c(COc3ccccc3CC(=O)O)cc3ccoc23)c1F` [Compound 531c, 2-(2-((7-(2-(aminomethyl)-3-fluoropyridin-4-yl)-6-fluorobenzofuran-5-yl)methoxy)phenyl)acetic acid] as the compound, how does the IC50 read?
A: The IC50 was < 1000 nM.

Q: `Nc1n[nH]c2c(-c3cc(COc4ccccc4CC(=O)O)cc4ccoc34)cccc12` [Compound 176c, 2-(2-((7-(3-amino-1H-indazol-7-yl)benzofuran-5-yl)methoxy)phenyl)acetic acid] was tested. Which IC50 did it give?
A: The IC50 was 1000 to 10000 nM.

Q: Which IC50 does the source give for `CCCc1cc2cc(COc3ccccc3CC(=O)O)cc(-c3cccc(CN)c3)c2o1` [Compound 187f, 2-(2-((7-(3-(aminomethyl)phenyl)-2-propylbenzofuran-5-yl)methoxy)phenyl)acetic acid] here?
A: The IC50 was < 1000 nM.

Q: Which IC50 does the source give for `CCc1ccc(CC(=O)O)c(OCc2cc(-c3cccc(CN)c3F)c3occc3c2)c1` [Compound 315f, 2-(2-((7-(3-(aminomethyl)-2-fluorophenyl)benzofuran-5-yl)methoxy)-4-ethylphenyl)acetic acid] here?
A: Its IC50 is < 1000 nM.

Q: With `NCc1cccc(-c2cc(COc3cc(F)ccc3CC(=O)O)cc3ccoc23)c1F` [Compound 363b, 2-(2-((7-(3-(aminomethyl)-2-fluorophenyl)benzofuran-5-yl)methoxy)-4-fluorophenyl)acetic acid] as the compound, how does the IC50 read?
A: Its IC50 is < 1000 nM.

Q: Which IC50 does the source give for `COc1ncc(-c2ccc(CC(=O)O)c(OCc3cc(-c4cccc(CN)c4)c4occc4c3)c2)cc1C` [Compound 322d, 2-(2-((7-(3-(aminomethyl)phenyl)benzofuran-5-yl)methoxy)-4-(6-methoxy-5-methylpyridin-3-yl)phenyl)acetic acid] here?
A: The IC50 was < 1000 nM.

Q: With `NCc1cccc(-c2cc(C(=O)Nc3ccccc3CC(=O)O)c(F)c3ccoc23)c1F` [Compound 246b, 2-(2-(7-(3-(aminomethyl)-2-fluorophenyl)-4-fluorobenzofuran-5-carboxamido)phenyl)acetic acid] as the compound, how does the IC50 read?
A: The IC50 was < 1000 nM.

Q: For `Cc1cc(CC(=O)O)c(OCc2cc(-c3ccnc(CN)c3)c3occc3c2)cc1C` [Compound 428c, 2-(2-((7-(2-(aminomethyl)pyridin-4-yl)benzofuran-5-yl)methoxy)-4,5-dimethylphenyl)acetic acid], which IC50 is on record?
A: Its IC50 is < 1000 nM.

Q: How did the IC50 turn out when `Cc1noc2c(-c3ccnc(CN)c3)cc(COc3ccccc3CC(=O)O)cc12` [Compound 268h, 2-(2-((7-(2-(aminomethyl)pyridin-4-yl)-3-methylbenzo[d]isoxazol-5-yl)methoxy)phenyl)acetic acid] was run?
A: Its IC50 is < 1000 nM.

Q: How did the IC50 turn out when `NCc1cccc(-c2nc3c(c(C(=O)Nc4ccccc4CC(=O)O)n2)CCC3)c1` [Compound 2f, 2-(2-(2-(3-(aminomethyl)phenyl)-6,7-dihydro-5H-cyclopenta[d]pyrimidine-4-carboxamido)phenyl)acetic acid] was run?
A: Its IC50 is < 1000 nM.

Q: Which IC50 does the source give for `NCc1cccc(-c2cc(C(=O)Nc3ccccc3CC(=O)O)cc3ccoc23)c1` [Compound 15d, 2-(2-(7-(3-(aminomethyl)phenyl)benzofuran-5-carboxamido)phenyl)acetic acid] here?
A: Its IC50 is < 1000 nM.

Q: Which IC50 does the source give for `Cc1ccc(CC(=O)O)c(OCc2cc(-c3ccnc(CN)c3)c3occ(C(F)(F)F)c3c2)c1` [Compound 379c, 2-(2-((7-(2-(aminomethyl)pyridin-4-yl)-3-(trifluoromethyl)benzofuran-5-yl)methoxy)-4-methylphenyl)acetic acid] here?
A: Its IC50 is < 1000 nM.

Q: With `NCc1cc(-c2cc(COc3ccccc3CC(=O)O)cc3sccc23)ccn1` [Compound 221c, 2-(2-((4-(2-(aminomethyl)pyridin-4-yl)benzo[b]thiophen-6-yl)methoxy)phenyl)acetic acid] as the compound, how does the IC50 read?
A: Its IC50 is < 1000 nM.

Q: With `NCc1cccc(-c2cc(COc3c(F)cccc3CC(=O)O)cc3ccoc23)c1` [Compound 264c, 2-(2-((7-(3-(aminomethyl)phenyl)benzofuran-5-yl)methoxy)-3-fluorophenyl)acetic acid] as the compound, how does the IC50 read?
A: Its IC50 is < 1000 nM.

Q: For `NCc1cccc(-c2cc(COc3ccccc3CC(=O)O)cc3cc(F)oc23)c1F` [Compound 373b, 2-(2-((7-(3-(aminomethyl)-2-fluorophenyl)-2-fluorobenzofuran-5-yl)methoxy)phenyl)acetic acid], which IC50 is on record?
A: Its IC50 is < 1000 nM.

Q: How did the IC50 turn out when `Cc1cccc(OCc2cc(-c3cccc(CN)c3)c3occc3c2)c1CC(=O)O` [Compound 314f, 2-(2-((7-(3-(aminomethyl)phenyl)benzofuran-5-yl)methoxy)-6-methylphenyl)acetic acid] was run?
A: The IC50 was < 1000 nM.

Q: With `N#Cc1ccc(CC(=O)O)c(OCc2cc(-c3cccc(CN)c3)c3occc3c2)c1` [Compound 237b, 2-(2-((7-(3-(aminomethyl)phenyl)benzofuran-5-yl)methoxy)-4-cyanophenyl)acetic acid] as the compound, how does the IC50 read?
A: Its IC50 is < 1000 nM.

Q: For `Cc1ccc(CC(=O)O)c(OCc2cc(-c3cccc(CN)c3)c3oc(F)cc3c2)c1` [Compound 299c, 2-(2-((7-(3-(aminomethyl)phenyl)-2-fluorobenzofuran-5-yl)methoxy)-4-methylphenyl)acetic acid], which IC50 is on record?
A: Its IC50 is < 1000 nM.

Q: Which IC50 does the source give for `CC(C)(O)c1cc2cc(COc3ccccc3CC(=O)O)cc(-c3cccc(CN)c3)c2o1` [Compound 104e, 2-(2-((7-(3-(aminomethyl)phenyl)-2-(2-hydroxypropan-2-yl)benzofuran-5-yl)methoxy)phenyl)acetic acid] here?
A: The IC50 was < 1000 nM.

Q: How did the IC50 turn out when `NCc1cccc(-c2cc(COc3ccccc3CC(=O)O)cc3cc(CN)oc23)c1` [Compound 406e, 2-(2-((2-(aminomethyl)-7-(3-(aminomethyl)phenyl)benzofuran-5-yl)methoxy)phenyl)acetic acid] was run?
A: The IC50 was < 1000 nM.

Q: How did the IC50 turn out when `Cc1cccc(CC(=O)O)c1OCc1cc(-c2cccc(CN)c2)c2occc2c1` [Compound 274g, 2-(2-((7-(3-(aminomethyl)phenyl)benzofuran-5-yl)methoxy)-3-methylphenyl)acetic acid] was run?
A: Its IC50 is < 1000 nM.

Q: `Cn1cc2c(-c3cccc(CN)c3F)cc(COc3ccccc3CC(=O)O)cc2n1` [Compound 129e, 2-(2-((4-(3-(aminomethyl)-2-fluorophenyl)-2-methyl-2H-indazol-6-yl)methoxy)phenyl)acetic acid] was tested. Which IC50 did it give?
A: Its IC50 is < 1000 nM.

Q: For `NCc1cccc(-c2cc(C(=O)Nc3ccccc3CC(=O)O)c(F)c3ccoc23)c1` [Compound 241c, 2-(2-(7-(3-(aminomethyl)phenyl)-4-fluorobenzofuran-5-carboxamido)phenyl)acetic acid], which IC50 is on record?
A: The IC50 was < 1000 nM.

Q: `NCc1cccc(-c2cc(COc3ccccc3CC(=O)O)cc3[nH]c(C(F)(F)F)cc23)c1F` [Compound 501f, 2-(2-((4-(3-(aminomethyl)-2-fluorophenyl)-2-(trifluoromethyl)-1H-indol-6-yl)methoxy)phenyl)acetic acid] was tested. Which IC50 did it give?
A: The IC50 was < 1000 nM.

Q: Which IC50 does the source give for `Cc1coc2c(-c3cccc(CN)c3F)cc(COc3ccccc3CC(=O)O)cc12` [Compound 383b, 2-(2-((7-(3-(aminomethyl)-2-fluorophenyl)-3-methylbenzofuran-5-yl)methoxy)phenyl)acetic acid] here?
A: The IC50 was < 1000 nM.

Q: `CC(=O)Nc1ccc(CC(=O)O)c(OCc2cc(-c3cccc(CN)c3)c3oc(CO)cc3c2)c1` [Compound 421e, 2-(4-acetamido-2-((7-(3-(aminomethyl)phenyl)-2-(hydroxymethyl)benzofuran-5-yl)methoxy)phenyl)acetic acid] was tested. Which IC50 did it give?
A: Its IC50 is < 1000 nM.

Q: `NCc1nccc(-c2cc(COc3ccc(F)cc3CC(=O)O)cc3ccoc23)c1F` [Compound 90d, 2-(2-((7-(2-(aminomethyl)-3-fluoropyridin-4-yl)benzofuran-5-yl)methoxy)-5-fluorophenyl)acetic acid] was tested. Which IC50 did it give?
A: Its IC50 is < 1000 nM.

Q: How did the IC50 turn out when `COc1ccc(CC(=O)O)c(OCc2cc(-c3cccc(CN)c3F)c3ccn(C(C)C)c3c2)c1` [Compound 357b, 2-(2-((4-(3-(aminomethyl)-2-fluorophenyl)-1-isopropyl-1H-indol-6-yl)methoxy)-4-methoxyphenyl)acetic acid] was run?
A: Its IC50 is < 1000 nM.

Q: How did the IC50 turn out when `NCc1cccc(-c2cc(COc3ccccc3CC(=O)O)cc3cc(C4CCCC4)oc23)c1` [Compound 82f, 2-(2-((7-(3-(aminomethyl)phenyl)-2-cyclopentylbenzofuran-5-yl)methoxy)phenyl)acetic acid] was run?
A: Its IC50 is < 1000 nM.

Q: With `NCc1cccc(-c2cc(COc3ccc(CO)cc3CC(=O)O)cc3ccoc23)c1` [Compound 254c, 2-(2-((7-(3-(aminomethyl)phenyl)benzofuran-5-yl)methoxy)-5-(hydroxymethyl)phenyl)acetic acid] as the compound, how does the IC50 read?
A: Its IC50 is < 1000 nM.

Q: How did the IC50 turn out when `NCc1cccc(-c2cc(COc3ccccc3CC(=O)O)cc3cc(C(O)C(F)(F)F)oc23)c1` (stereo not drawn) [Compound 103d, 2-(2-((7-(3-(aminomethyl)phenyl)-2-(2,2,2-trifluoro-1-hydroxyethyl)benzofuran-5-yl)methoxy)phenyl)acetic acid] was run?
A: The IC50 was < 1000 nM.

Q: How did the IC50 turn out when `NCc1cc(F)cc(-c2cc(COc3ccccc3CC(=O)O)cc3ccoc23)c1F` [Compound 256c, 2-(2-((7-(3-(aminomethyl)-2,5-difluorophenyl)benzofuran-5-yl)methoxy)phenyl)acetic acid] was run?
A: Its IC50 is < 1000 nM.

Q: For `NCc1cccc(-c2cc(COc3ccccc3CC(=O)O)cc3cc(CNCc4ccccc4)oc23)c1` [Compound 283c, 2-(2-((7-(3-(aminomethyl)phenyl)-2-((benzylamino)methyl)benzofuran-5-yl)methoxy)phenyl)acetic acid], which IC50 is on record?
A: Its IC50 is < 1000 nM.

Q: Which IC50 does the source give for `COCc1cc2cc(COc3cc(C)ccc3CC(=O)O)cc(-c3cccc(CN)c3F)c2o1` [Compound 444c, 2-(2-((7-(3-(aminomethyl)-2-fluorophenyl)-2-(methoxymethyl)benzofuran-5-yl)methoxy)-4-methylphenyl)acetic acid] here?
A: Its IC50 is < 1000 nM.
